The molecules below were run against Sphingosine 1-phosphate receptor 1 (Homo sapiens, UniProt P21453) (assay: S1P1 agonism potentiation – cell-based, potentiator mode, 60K MLSMR set, dose response (AID 466)). Conditions: not given.
Sphingosine 1-phosphate receptor 1, sequence (P21453 whole entry): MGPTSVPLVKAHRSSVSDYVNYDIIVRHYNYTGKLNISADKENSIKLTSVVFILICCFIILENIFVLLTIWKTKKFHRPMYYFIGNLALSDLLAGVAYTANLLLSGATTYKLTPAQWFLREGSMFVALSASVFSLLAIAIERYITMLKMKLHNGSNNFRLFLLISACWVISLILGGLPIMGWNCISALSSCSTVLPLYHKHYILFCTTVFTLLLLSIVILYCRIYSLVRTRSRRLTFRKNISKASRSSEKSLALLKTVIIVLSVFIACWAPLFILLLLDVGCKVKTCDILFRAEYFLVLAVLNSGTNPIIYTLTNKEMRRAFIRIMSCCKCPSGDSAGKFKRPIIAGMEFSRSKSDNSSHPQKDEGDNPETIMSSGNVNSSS
For c1ccc2c(c1)oc1c(N3CCN(Cc4ccc5c(c4)OCO5)CC3)ncnc12, the EC50 was 6.55 µM. Molecule Cc1csc(SCC(=O)c2cc(C)n(Cc3cccs3)c2C)n1 [1-[2,5-dimethyl-1-(2-thenyl)pyrrol-3-yl]-2-[(4-methylthiazol-2-yl)thio]ethanone] has an EC50 of 7.01 µM. For O=S1(=O)C=C(Sc2nc3cc(Cl)ccc3o2)c2ccccc21 [SMR000019512], the EC50 was > 30 µM. COc1ccc(-c2cn3c(C)c(C(=O)Nc4ccncc4)sc3n2)cc1 [6-(4-methoxyphenyl)-3-methyl-N-(4-pyridyl)imidazo[2,1-b]thiazole-2-carboxamide] was tested, and the EC50 was > 10 µM. With CCN(CC)c1ccc2cc(NC(=O)CCC(=O)O)c(=O)oc2c1 [4-[[7-(diethylamino)-2-keto-chromen-3-yl]amino]-4-keto-butyric acid] the EC50 was 8.31 µM. With Cc1oc(-c2ccccc2)nc1Cn1cccc1C1=NC(c2ccccc2)CO1 (stereo not given) [SMR000026251] the EC50 was 0.692 µM. For Cn1c(C(=O)N2CCc3ccccc3C2)cc2oc3ccccc3c21 [2-(3,4-dihydroisoquinolin-2(1H)-ylcarbonyl)-1-methyl-1H-[1]benzofuro[3,2-b]pyrrole], the EC50 was > 30 µM. Molecule CCCCOC(=O)c1[nH]c2c(c1C)C(=O)CC(c1cc(OC)c(OC)c(OC)c1)C2 (stereo not given) has an EC50 of 5.06 µM. In the case of O=C(CCC(=O)N(Cc1ccco1)C(C(=O)NC1CCCC1)c1ccncc1)Nc1cccnc1 (stereo not given) [MLS000033292], the EC50 is reported as > 95 µM. CC(C)(CC(=O)N1CCN(c2ccc(Cl)cc2)CC1)CC1=NS(=O)(=O)c2ccccc2N1 [1-[4-(4-chlorophenyl)-1-piperazinyl]-4-(1,1-dioxo-4H-1,2,4-benzothiadiazin-3-yl)-3,3-dimethyl-1-butanone] was tested, and the EC50 was 9.93 µM. For Nc1nnnn1N=C/C(Br)=C/c1ccccc1 [1-[[(Z)-2-bromanyl-3-phenyl-prop-2-enylidene]amino]-1,2,3,4-tetrazol-5-amine], the EC50 was > 10 µM. Cc1cccc(NC(=O)Nc2ccc(C#N)cc2)n1 [1-(4-cyanophenyl)-3-(6-methyl-2-pyridinyl)urea] was tested, and the EC50 was > 30 µM. Molecule CCCCOc1ccc(S(=O)(=O)Nc2cccnc2)cc1 [4-butoxy-N-(3-pyridinyl)benzenesulfonamide] has an EC50 of 8.55 µM. For COc1cc(CSc2nnnn2-c2ccc(C)cc2)cc(OC)c1OC [1-(4-methylphenyl)-5-[(3,4,5-trimethoxybenzyl)thio]-1H-tetrazole], the EC50 was 2.87 µM. For c1ccc(N2CCN(c3ncnc4c3oc3ccccc34)CC2)cc1 [4-(4-phenyl-1-piperazinyl)benzofuro[3,2-d]pyrimidine], the EC50 was > 95 µM. With COc1ccccc1OCCCCCc1c(C)n[nH]c1C [SMR000103101] the EC50 was 8.22 µM. For CCN(C(=O)C1CCCCC1)c1nnc(-c2cccnc2)s1 [Cyclohexanecarboxylic acid ethyl-(5-pyridin-3-yl-[1,3,4]thiadiazol-2-yl)-amide], the EC50 was 1.75 µM. Molecule CCCS(=O)(=O)c1nnnn1-c1cccc(OC)c1 [1-(3-methoxyphenyl)-5-(propylsulfonyl)-1H-tetrazole] has an EC50 of 3.19 µM.

Same assay, conditions: inactive by the depositor's call
For Cc1n[nH]c(C)c1N1C(=O)c2cccc3c(N4CCCCCC4)ccc(c23)C1=O, the EC50 was 12.5 µM. Molecule CC1CC(C)(C)Nc2ccc(OC(=O)c3ccco3)cc21 (stereo not given) [(2,2,4-trimethyl-3,4-dihydro-1H-quinolin-6-yl) furan-2-carboxylate] has an EC50 of 14 µM. With CC(C)(C)NC(=O)CSc1ncnc2c1nnn2Cc1ccccc1Cl [MLS000034488] the EC50 was 12.7 µM. CC(C)Cn1c(=O)c(C(=O)Nc2ccccc2S(N)(=O)=O)c(O)c2ccccc21 [1-(2-methylpropyl)-2-oxidanyl-4-oxidanylidene-N-(2-sulfamoylphenyl)quinoline-3-carboxamide] showed an EC50 of 14.4 µM. Work on Cc1cccc(OCCCCc2c(C)n[nH]c2C)c1 [SMR000103102] yielded an EC50 of 10.6 µM. CCCCOc1ccc(S(=O)(=O)Nc2cc(OC)ccc2OC)cc1 [4-butoxy-N-(2,5-dimethoxyphenyl)benzenesulfonamide] was tested, and the EC50 was 12.1 µM. Work on CC1=C(/C=C/C(C)=C/C=C/C(C)=C/C(=O)O)C(C)(C)CCC1 [ALL-TRANS-RETINOIC ACID] yielded an EC50 of 34.1 µM.
